As a reminder, the IC50 is the point on the concentration scale where inhibition reaches its midpoint.

From patent US20250129067A1 (Progentos Therapeutics, Inc., priority 2021, published 2025) come the findings set out here.

SMILES strings stand for the structures. Bounds are passed on as bounds.

Data set [1] deals with Oligodendrocyte progenitor cells (OPCs). Put plainly: In vitro OPC differentiation assay, GPR17 expression (immunocytochemistry). The note with it: 3 μM (10× concentration, final 0.3 μM); 72 hours; fold change over vehicle.
The target in a further data set is PDGFRα (Homo sapiens (Human), UniProt P16234). The experiment in a line: PDGFRα kinase enzyme assay (Promega PDGFRα Kinase Enzyme System, ADP-Glo). It counts as biochemical. The note with it: 11-point dose response, 10,000 nM to 0.169 nM; 150 uM ATP; BLQ = below limit of quantitation; read-out: IC50 Values on PDGFRα Kinase Inhibition, IC50. In short, it runs like this:
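Purified PDGFRα protein (20 ng) reacted with test compound per the Promega kinase system protocol. ADP formed was measured by ADP-Glo luminescence against a standard curve, giving IC50.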
For orientation: ADP-Glo first removes unused ATP, then detects ADP through luciferase.

Sequence of PDGFRα (P16234 24-1089): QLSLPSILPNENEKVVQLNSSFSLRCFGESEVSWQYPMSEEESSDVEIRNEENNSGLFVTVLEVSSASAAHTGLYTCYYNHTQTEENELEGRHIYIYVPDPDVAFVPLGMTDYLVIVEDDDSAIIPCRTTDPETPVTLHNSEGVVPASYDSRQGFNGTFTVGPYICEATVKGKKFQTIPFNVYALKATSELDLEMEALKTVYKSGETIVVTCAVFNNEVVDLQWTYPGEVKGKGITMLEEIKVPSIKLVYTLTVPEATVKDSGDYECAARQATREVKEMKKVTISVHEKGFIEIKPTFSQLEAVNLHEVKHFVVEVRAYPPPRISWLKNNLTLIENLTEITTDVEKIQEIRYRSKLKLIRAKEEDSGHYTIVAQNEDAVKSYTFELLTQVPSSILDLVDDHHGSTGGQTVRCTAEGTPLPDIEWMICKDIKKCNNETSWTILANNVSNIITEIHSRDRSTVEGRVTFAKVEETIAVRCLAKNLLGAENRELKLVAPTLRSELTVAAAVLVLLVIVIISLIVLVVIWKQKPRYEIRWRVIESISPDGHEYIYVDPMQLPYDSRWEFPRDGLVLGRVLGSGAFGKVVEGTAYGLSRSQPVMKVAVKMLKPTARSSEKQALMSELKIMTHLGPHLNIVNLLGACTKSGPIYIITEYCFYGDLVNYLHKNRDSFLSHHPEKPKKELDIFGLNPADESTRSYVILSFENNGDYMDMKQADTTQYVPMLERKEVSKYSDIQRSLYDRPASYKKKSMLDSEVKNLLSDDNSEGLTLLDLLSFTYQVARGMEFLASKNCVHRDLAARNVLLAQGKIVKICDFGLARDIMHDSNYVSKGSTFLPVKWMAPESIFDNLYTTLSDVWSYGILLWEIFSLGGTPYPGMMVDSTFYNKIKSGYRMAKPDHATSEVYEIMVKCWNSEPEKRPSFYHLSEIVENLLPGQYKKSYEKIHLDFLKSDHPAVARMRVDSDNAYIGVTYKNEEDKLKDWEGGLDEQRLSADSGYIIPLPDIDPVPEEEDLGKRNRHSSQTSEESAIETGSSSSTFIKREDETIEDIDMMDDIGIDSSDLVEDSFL

In the case of `CC(C)(C)OC(=O)N1CCN(c2cnn3cc(C4CCC(O)C4)ccc23)CC1` (stereo not shown) [Compound 215, tert-butyl 4-[6-(3-hydroxycyclopentyl)pyrazolo[1,5-a]pyridin-3-yl]piperazine-1-carboxylate], the “GPR17 Fold Induction (Over Vehicle; 3 μM)” value (“GPR17 Fold Induction” below) in data set [1] is on record as 0.76. The IC50 on PDGFRα is greater than 10 µM.

For the compound `Cn1cc(-c2ccc3c(N4CCN(c5ncc(C(O)C(F)(F)F)cn5)CC4)cnn3c2)cn1` (stereo not shown) [Compound 285, 2,2,2-trifluoro-1-(2-{4-[6-(1-methyl-1H-pyrazol-4-yl)pyrazolo[1,5-a]pyridin-3-yl]piperazin-1-yl}pyrimidin-5-yl)ethanol], the “GPR17 Fold Induction” value in data set [1] is given as 6.20. For the same compound, the IC50 on PDGFRα was found to be 7.62 µM.

Regarding `CC(C)(C)OC(=O)N1CCN(c2cnn3cc(-c4ccccc4F)ccc23)CC1` [Compound 209, tert-butyl-4-(6-(2-fluorophenyl)pyrazolo[1,5-a]pyridin-3-yl)piperazine-1-carboxylate], in data set [1], the “GPR17 Fold Induction” value turned out to be 2.02. Further, the IC50 on PDGFRα was greater than 10 µM.

As for `Cn1cc(-c2cnn3c(N4CCN(S(=O)(=O)NCc5ccc(C(F)(F)F)cc5)CC4)cnc3c2)cn1` [Compound 296, 4-(7-(1-methyl-1H-pyrazol-4-yl)imidazo[1,2-b]pyridazin-3-yl)-N-(4-(trifluoromethyl)benzyl)piperazine-1-sulfonamide], in data set [1], the “GPR17 Fold Induction” value came to 10.65. The half-maximal inhibitory concentration (IC50) at PDGFRα was found to be 0.397 µM.

Consider `CN(Cc1ccccc1)C(=O)N1CCN(c2cnn3cc(-c4cnn(C)c4)ccc23)CC1` [Compound 162, N-benzyl-N-methyl-4-(6-(1-methyl-1H-pyrazol-4-yl)pyrazolo[1,5-a]pyridin-3-yl)piperazine-1-carboxamide], for which, in data set [1], the “GPR17 Fold Induction” value is 2.90. Also, the IC50 on PDGFRα stood at 1.48 µM.

Regarding `CC(C)(C)OC(=O)N1CCN(c2cnn3cc(-c4cncn4CCO)ccc23)CC1` [Compound 230, tert-butyl 4-(6-(1-(2-hydroxyethyl)-1H-imidazol-5-yl)pyrazolo[1,5-a]pyridin-3-yl)piperazine-1-carboxylate], in data set [1], the “GPR17 Fold Induction” value came to 0.97. In addition, the IC50 at PDGFRα was greater than 10 µM.

With `CN1CCC(c2ccc3c(N4CCN(C(=O)OC(C)(C)C)CC4)cnn3c2)CC1` [Compound 225, tert-butyl 4-(6-(1-methylpiperidin-4-yl)pyrazolo[1,5-a]pyridin-3-yl)piperazine-1-carboxylate], in data set [1], the “GPR17 Fold Induction” value came to 1.55. The IC50 at PDGFRα was greater than 10 µM.

`Cc1cn(-c2ccn3c(N4CCN(C(=O)OC(C)(C)C)CC4)cnc3n2)cn1` [Compound 104, tert-butyl 4-(7-(4-methyl-1H-imidazol-1-yl)imidazo[1,2-a]pyrimidin-3-yl)piperazine-1-carboxylate]: in data set [1], the “GPR17 Fold Induction” value amounted to 1.40. Besides, the concentration for half-maximal inhibition (IC50) at PDGFRα stood at 2.8 µM.

In the case of `CC(C)(C)OC(=O)N1CCN(c2cnn3cc(-c4cncn4CCCN4CCOCC4)ccc23)CC1` [Compound 232, tert-butyl 4-(6-(1-(3-morpholinopropyl)-1H-imidazol-5-yl)pyrazolo[1,5-a]pyridin-3-yl)piperazine-1-carboxylate], the “GPR17 Fold Induction” value in data set [1] is 1.03. In addition, the concentration for half-maximal inhibition (IC50) on PDGFRα was greater than 10 µM.

Turning to `C[C@@H](OC(=O)N1CCN(c2cnn3cc(-c4cnn(C)c4)ccc23)CC1)c1ccccc1F` [Compound 81, (1R)-1-(2-Fluorophenyl)ethyl 4-[6-(1-methyl-1H-pyrazol-4-yl)pyrazolo[1,5-a]pyridin-3-yl]piperazine-1-carboxylate], the “GPR17 Fold Induction” value in data set [1] worked out at 6.74. For the same compound, the IC50 at PDGFRα amounted to 0.0972 µM.

As to `Cn1cc(-c2ccc3c(N4CCN(Cc5csc(Cl)c5)CC4)cnn3c2)cn1` [Compound 200, 3-(4-((5-chlorothiophen-3-yl)methyl)piperazin-1-yl)-6-(1-methyl-1H-pyrazol-4-yl)pyrazolo[1,5-a]pyridine], in data set [1], the “GPR17 Fold Induction” value worked out at 2.20. The IC50 on PDGFRα came out at 6.96 µM.
